# Molecular target: T1, ROCK1 (Homo sapiens, UniProt Q13464)
# T1 construct: purchased Thermo Fisher Scientific (Life Technologies) SelectScreen
# Assay: SelectScreen Z'LYTE
# Type: biochemical
# Outline: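 SelectScreen broad panel; activity (Z'LYTE, Adapta) plus binding formats. ATP: Km app for CSF1R Z'LYTE; 10 for CAMK1 Adapta. Readout = % per kinase.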
# T1 sequence (Q13464 whole entry): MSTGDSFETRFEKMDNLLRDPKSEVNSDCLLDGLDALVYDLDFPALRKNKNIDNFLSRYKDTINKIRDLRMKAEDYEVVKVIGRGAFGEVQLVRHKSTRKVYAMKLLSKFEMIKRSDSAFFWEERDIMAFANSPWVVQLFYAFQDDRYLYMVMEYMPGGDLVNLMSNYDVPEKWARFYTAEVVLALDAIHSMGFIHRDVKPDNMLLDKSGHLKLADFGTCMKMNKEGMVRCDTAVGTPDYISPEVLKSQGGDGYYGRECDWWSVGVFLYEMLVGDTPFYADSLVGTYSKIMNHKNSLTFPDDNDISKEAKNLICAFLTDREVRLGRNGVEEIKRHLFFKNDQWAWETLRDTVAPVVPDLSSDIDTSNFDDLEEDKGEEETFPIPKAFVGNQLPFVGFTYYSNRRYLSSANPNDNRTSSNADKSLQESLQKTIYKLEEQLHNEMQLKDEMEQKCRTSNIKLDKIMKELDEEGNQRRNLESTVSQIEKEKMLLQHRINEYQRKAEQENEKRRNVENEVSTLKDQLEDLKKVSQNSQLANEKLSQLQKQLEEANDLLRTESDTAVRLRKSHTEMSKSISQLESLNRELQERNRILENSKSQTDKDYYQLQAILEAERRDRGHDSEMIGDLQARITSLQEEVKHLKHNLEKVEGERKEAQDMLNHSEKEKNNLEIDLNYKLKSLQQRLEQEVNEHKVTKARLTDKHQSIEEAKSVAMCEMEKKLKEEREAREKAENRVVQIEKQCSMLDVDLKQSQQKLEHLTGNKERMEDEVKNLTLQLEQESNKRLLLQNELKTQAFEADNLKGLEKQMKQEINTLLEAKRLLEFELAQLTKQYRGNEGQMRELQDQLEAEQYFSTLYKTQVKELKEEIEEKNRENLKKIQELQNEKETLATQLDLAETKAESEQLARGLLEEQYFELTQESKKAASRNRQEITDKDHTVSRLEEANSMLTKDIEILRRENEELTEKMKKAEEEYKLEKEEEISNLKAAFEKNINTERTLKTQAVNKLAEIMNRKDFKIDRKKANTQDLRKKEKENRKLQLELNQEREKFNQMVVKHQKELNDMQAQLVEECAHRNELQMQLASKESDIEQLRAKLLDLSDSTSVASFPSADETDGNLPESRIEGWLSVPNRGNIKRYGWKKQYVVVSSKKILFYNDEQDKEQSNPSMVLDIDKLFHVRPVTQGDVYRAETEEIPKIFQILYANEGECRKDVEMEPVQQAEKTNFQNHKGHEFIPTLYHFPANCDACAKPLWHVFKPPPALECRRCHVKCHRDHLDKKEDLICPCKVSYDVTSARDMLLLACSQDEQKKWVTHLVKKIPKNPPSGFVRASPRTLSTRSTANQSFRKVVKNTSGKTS
compound,measurement,value
CN(C(=O)CN1CCOCC1)c1ccc2sc3c(-c4cccc5c(=O)cc(N6CC7CCC(C6)O7)oc45)cccc3c2c1 [NU5455],inhibition at 1 µM,-9.5%

# From PMC6934184, “Selective DNA-PKcs inhibition extends the therapeutic index of localized radiotherapy and chemotherapy” (The Journal of Clinical Investigation, 2019)
